The record followed here is patent US20240245793A1, “PSD-95 INHIBITORS AND USES THEREOF” (priority 2021, published 2024).

The structures appear in SMILES notation. Read-outs that look alike come from different tables or passages of the source.

For this data set, the system named is HeLa cells stably expressing HaloGFP. In words: Chloroalkane penetration assay (CAPA), membrane permeability and cellular uptake. It is filed as cell-based. From the text:
Since PSD-95 is located intracellularly, it is essential for any drug targeting PSD-95 to efficiently cross the cell membrane. To assess the cellular permeability and delivery to the cytosol of the compounds as defined herein, the cellular chloroalkane penetration assay (CAPA) may be used (Peraro et al. 2018). This assay takes advantage of a modified haloalkane dehalogenase designed to covalently bind chloroalkane (CA) molecules. A HeLa cell line expressing a fusion protein comprising a HaloTag, a green fluorescent protein (GFP) and a mitochondria-targeting peptide is used to report cytosolic delivery. The general format of the CAPA is a pulse-chase assay (Deprey & Kritzer, 2020). Cells expressing the HaloTag enzyme are incubated with CA-tagged peptides. When these CA-peptides penetrate the cell membrane and reach the cytosol, they will bind to and react with the HaloTag (pulse step). Following a washing step, the cells are incubated with a CA-tagged dye that quantitatively penetrates the cell membrane and reacts with remaining unreacted HaloTag sites (chase step). Flow cytometry is used to measure the fluorescence intensity of the cells and the measured fluorescence is inversely proportional to the amount of CA-peptides that reach the penetrated the cells and can thus be used to assess cytosolic delivery. The obtained data is commonly expressed as CP50 values, the concentration at which 50% cell penetration is observed. The CP50 value of a compound may be measured as described in example 4.
The membrane permeability of compounds 10 to 75 was determined in HeLa cells stably expressing HaloGFP exclusively located in the cytosol. Cells were seeded at a density of 40.000 cells/well one day prior to the experiment. After the growth media was aspirated and replaced by 100 μL of Opti-MEM, 25 μL of a prepared serial dilution of the ligand in Opti-MEM was added to the cells (constant DMSO concentration), and the plate was incubated for 4 h at 37° C. and 5% CO2. The contents of the wells were aspirated, and cells were washed with fresh Opti-MEM for 15 min. After aspiration of the wash, the cells were incubated with TAMRA-CA (5 μM) for 15 min. After aspiration of the chase solution, cells were washed with Opti-MEM for 30 min. Following removal of the wash, cells were trypsinized, resuspended in PBS (2% FBS), and analyzed using a benchtop flow cytometer. Using no ligand and no TAMRA-CA control well, the obtained fluorescence intensity data was normalized and plotted as dose-response curves. Reported CP50 values represent half-maximum red fluorescence which behaves inverse to cell penetration of the ligand.

Turning to `CC[C@H](C)[C@H](NC(=O)CCOCCOCCN(CCOCCOCCC(=O)N[C@H](C(=O)N[C@@H](CCC(=O)O)C(=O)N[C@H](C(=O)N[C@@H](CC(=O)O)C(=O)N[C@H](C(=O)O)C(C)C)[C@@H](C)O)[C@@H](C)CC)C(=O)[C@H](Cc1ccccc1)NC(=O)[C@H](CCC(N)=O)NC(=O)CNC(=O)[C@H](CCCNC(=N)N)NC(=O)[C@H](CC(C)C)NC(=O)[C@H](CC(C)C)NC(=O)[C@H](CCCNC(=N)N)NC(=O)[C@H](CC(C)C)NC(=O)[C@H](Cc1ccc(O)cc1)NC(=O)[C@@H](NC(=O)[C@H](CC(C)C)NC(=O)[C@@H]1CCCN1C(=O)CCC(=O)NCCOCCOCCCCCCCl)[C@@H](C)CC)C(=O)N[C@@H](CCC(=O)O)C(=O)N[C@H](C(=O)N[C@@H](CC(=O)O)C(=O)N[C@H](C(=O)O)C(C)C)[C@@H](C)O` [Compound 57], the CP50 amounted to 17.9 ± 0.3 µM.

With `CC[C@@H](C)[C@@H](NC(=O)[C@@H](CC(C)C)NC(=O)[C@H]1CCCN1C(=O)CCC(=O)NCCOCCOCCCCCCCl)C(=O)N[C@H](Cc1ccc(O)cc1)C(=O)N[C@H](CC(C)C)C(=O)N[C@H](CCCNC(=N)N)C(=O)N[C@H](CC(C)C)C(=O)N[C@H](CC(C)C)C(=O)N[C@H](CCCNC(=N)N)C(=O)NCC(=O)N[C@H](CCC(N)=O)C(=O)N[C@H](Cc1ccccc1)C(=O)N(CCOCCOCCC(=O)N[C@H](C(=O)N[C@@H](CCC(=O)O)C(=O)N[C@H](C(=O)N[C@@H](CC(=O)O)C(=O)N[C@H](C(=O)O)C(C)C)[C@@H](C)O)[C@@H](C)CC)CCOCCOCCC(=O)N[C@H](C(=O)N[C@@H](CCC(=O)O)C(=O)N[C@H](C(=O)N[C@@H](CC(=O)O)C(=O)N[C@H](C(=O)O)C(C)C)[C@@H](C)O)[C@@H](C)CC` [Compound 59], the CP50 is 67.2 ± 5.3 µM.

The compound `CC[C@H](C)[C@H](NC(=O)CCOCCOCCN(CCOCCOCCC(=O)N[C@H](C(=O)N[C@@H](CCC(=O)O)C(=O)N[C@H](C(=O)N[C@@H](CC(=O)O)C(=O)N[C@H](C(=O)O)C(C)C)[C@@H](C)O)[C@@H](C)CC)C(=O)[C@@H]1CC(=O)NC[C@H](NC(=O)CCC(=O)NCCOCCOCCCCCCCl)C(=O)N[C@@H](CCCCN)C(=O)N[C@@H](C)C(=O)N2CCC[C@H]2C(=O)N[C@@H](CCC(=O)O)C(=O)N[C@@H]([C@@H](C)O)C(=O)N[C@@H](C)C(=O)N[C@@H](CC(C)C)C(=O)N1)C(=O)N[C@@H](CCC(=O)O)C(=O)N[C@H](C(=O)N[C@@H](CC(=O)O)C(=O)N[C@H](C(=O)O)C(C)C)[C@@H](C)O` [Compound 61] returned a CP50 (CA-tagged NPEG4-(IETDV)2 with various CPP-tags, 4 h at 37° C., mean ± SEM (Table 11, FIG. 8)) of 13.2 ± 0.4 µM.

In turn, `CC[C@H](C)[C@H](NC(=O)CCOCCOCCN(CCOCCOCCC(=O)N[C@H](C(=O)N[C@@H](CCC(=O)O)C(=O)N[C@H](C(=O)N[C@@H](CC(=O)O)C(=O)N[C@H](C(=O)O)C(C)C)[C@@H](C)O)[C@@H](C)CC)C(=O)[C@H](CCCCNC(=O)CCC(=O)NCCOCCOCCCCCCCl)NC(=O)CCCNC(=O)CC[C@@H]1NC(=O)[C@@H](CCCNC(=N)N)NC(=O)[C@H](CCCNC(=N)N)NC(=O)[C@@H](CCCNC(=N)N)NC(=O)[C@H](CCCNC(=N)N)NC(=O)[C@H](Cc2ccc3ccccc3c2)NC(=O)[C@@H](Cc2ccccc2)NC(=O)[C@H](Cc2ccccc2)NC1=O)C(=O)N[C@@H](CCC(=O)O)C(=O)N[C@H](C(=O)N[C@@H](CC(=O)O)C(=O)N[C@H](C(=O)O)C(C)C)[C@@H](C)O` [Compound 63] registered a CP50 of 11.2 ± 0.7 µM.

The compound `CC[C@H](C)[C@H](NC(=O)CCOCCOCCN(CCOCCOCCC(=O)N[C@H](C(=O)N[C@@H](CCC(=O)O)C(=O)N[C@H](C(=O)N[C@@H](CC(=O)O)C(=O)N[C@H](C(=O)O)C(C)C)[C@@H](C)O)[C@@H](C)CC)C(=O)[C@H](CCCNC(=N)N)NC(=O)[C@H](CCCNC(=N)N)NC(=O)[C@H](CCCNC(=N)N)NC(=O)[C@H](CCCNC(=N)N)NC(=O)[C@H](CCCNC(=N)N)NC(=O)[C@H](CCCNC(=N)N)NC(=O)[C@H](CCCNC(=N)N)NC(=O)CCC(=O)NCCOCCOCCCCCCCl)C(=O)N[C@@H](CCC(=O)O)C(=O)N[C@H](C(=O)N[C@@H](CC(=O)O)C(=O)N[C@H](C(=O)O)C(C)C)[C@@H](C)O` [Compound 64] registered a CP50 of 1.66 ± 0.43 µM.

For `CC[C@H](C)[C@H](NC(=O)CCOCCOCCN(CCOCCOCCC(=O)N[C@H](C(=O)N[C@@H](CCC(=O)O)C(=O)N[C@H](C(=O)N[C@@H](CC(=O)O)C(=O)N[C@H](C(=O)O)C(C)C)[C@@H](C)O)[C@@H](C)CC)C(=O)[C@H](CCCNC(=N)N)NC(=O)[C@H](CCCNC(=N)N)NC(=O)[C@H](CCCNC(=N)N)NC(=O)[C@H](CCCNC(=N)N)NC(=O)[C@H](CCCNC(=N)N)NC(=O)CCC(=O)NCCOCCOCCCCCCCl)C(=O)N[C@@H](CCC(=O)O)C(=O)N[C@H](C(=O)N[C@@H](CC(=O)O)C(=O)N[C@H](C(=O)O)C(C)C)[C@@H](C)O` [Compound 65], the CP50 came out at 1.17 ± 0.37 µM.

`CC[C@H](C)[C@H](NC(=O)CCOCCOCCN(CCOCCOCCC(=O)N[C@H](C(=O)N[C@@H](CCC(=O)O)C(=O)N[C@H](C(=O)N[C@@H](CC(=O)O)C(=O)N[C@H](C(=O)O)C(C)C)[C@@H](C)O)[C@@H](C)CC)C(=O)[C@H](CCCNC(=N)N)NC(=O)[C@H](CCCNC(=N)N)NC(=O)[C@H](CCCNC(=N)N)NC(=O)CCC(=O)NCCOCCOCCCCCCCl)C(=O)N[C@@H](CCC(=O)O)C(=O)N[C@H](C(=O)N[C@@H](CC(=O)O)C(=O)N[C@H](C(=O)O)C(C)C)[C@@H](C)O` [Compound 66] displayed a CP50 of 3.71 ± 0.30 µM.

Compound `CC(C)C[C@H](NC(=O)[C@@H](NC(=O)[C@H](CCC(=O)O)NC(=O)[C@H](CCCCN)NC(=O)CCOCCOCCN(CCOCCOCCC(=O)N[C@@H](CCCCN)C(=O)N[C@@H](CCC(=O)O)C(=O)N[C@H](C(=O)N[C@@H](CC(C)C)C(=O)N[C@H](C(=O)O)C(C)C)[C@@H](C)O)C(=O)[C@H](CCCNC(=N)N)NC(=O)[C@H](CCCNC(=N)N)NC(=O)[C@H](CCCNC(=N)N)NC(=O)[C@H](CCCNC(=N)N)NC(=O)[C@H](CCCNC(=N)N)NC(=O)[C@H](CCCNC(=N)N)NC(=O)[C@H](CCCNC(=N)N)NC(=O)CCC(=O)NCCOCCOCCCCCCCl)[C@@H](C)O)C(=O)N[C@H](C(=O)O)C(C)C` [Compound 68] registered a CP50 of 0.58 ± 0.09 µM.

Compound `CC(C)C[C@H](NC(=O)[C@@H](NC(=O)[C@H](CCC(=O)O)NC(=O)[C@H](CCCCN)NC(=O)CCOCCOCCN(CCOCCOCCC(=O)N[C@@H](CCCCN)C(=O)N[C@@H](CCC(=O)O)C(=O)N[C@H](C(=O)N[C@@H](CC(C)C)C(=O)N[C@H](C(=O)O)C(C)C)[C@@H](C)O)C(=O)[C@H](CCCNC(=N)N)NC(=O)[C@H](CCCNC(=N)N)NC(=O)[C@H](CCCNC(=N)N)NC(=O)[C@H](CCCNC(=N)N)NC(=O)[C@H](CCCNC(=N)N)NC(=O)[C@H](CCCNC(=N)N)NC(=O)CCC(=O)NCCOCCOCCCCCCCl)[C@@H](C)O)C(=O)N[C@H](C(=O)O)C(C)C` [Compound 70] displayed a CP50 of 0.51 ± 0.08 µM.

In turn, `CC(C)C[C@H](NC(=O)[C@@H](NC(=O)[C@H](CCC(=O)O)NC(=O)[C@H](CCCCN)NC(=O)CCOCCOCCN(CCOCCOCCC(=O)N[C@@H](CCCCN)C(=O)N[C@@H](CCC(=O)O)C(=O)N[C@H](C(=O)N[C@@H](CC(C)C)C(=O)N[C@H](C(=O)O)C(C)C)[C@@H](C)O)C(=O)[C@H](CCCNC(=N)N)NC(=O)[C@H](CCCNC(=N)N)NC(=O)[C@H](CCCNC(=N)N)NC(=O)[C@H](CCCNC(=N)N)NC(=O)[C@H](CCCNC(=N)N)NC(=O)CCC(=O)NCCOCCOCCCCCCCl)[C@@H](C)O)C(=O)N[C@H](C(=O)O)C(C)C` [Compound 72] returned a CP50 of 0.66 ± 0.14 µM.

As to `CC(C)C[C@H](NC(=O)[C@@H](NC(=O)[C@H](CCC(=O)O)NC(=O)[C@H](CCCCN)NC(=O)CCOCCOCCN(CCOCCOCCC(=O)N[C@@H](CCCCN)C(=O)N[C@@H](CCC(=O)O)C(=O)N[C@H](C(=O)N[C@@H](CC(C)C)C(=O)N[C@H](C(=O)O)C(C)C)[C@@H](C)O)C(=O)[C@H](CCCNC(=N)N)NC(=O)[C@H](CCCNC(=N)N)NC(=O)[C@H](CCCNC(=N)N)NC(=O)[C@H](CCCNC(=N)N)NC(=O)CCC(=O)NCCOCCOCCCCCCCl)[C@@H](C)O)C(=O)N[C@H](C(=O)O)C(C)C` [Compound 74], the CP50 was 0.37 ± 0.08 µM.

In the case of `CC(C)C[C@H](NC(=O)[C@@H](NC(=O)[C@H](CCC(=O)O)NC(=O)[C@H](CCCCN)NC(=O)CCOCCOCCN(CCOCCOCCC(=O)N[C@@H](CCCCN)C(=O)N[C@@H](CCC(=O)O)C(=O)N[C@H](C(=O)N[C@@H](CC(C)C)C(=O)N[C@H](C(=O)O)C(C)C)[C@@H](C)O)C(=O)[C@H](CCCNC(=N)N)NC(=O)[C@H](CCCNC(=N)N)NC(=O)[C@H](CCCNC(=N)N)NC(=O)CCC(=O)NCCOCCOCCCCCCCl)[C@@H](C)O)C(=O)N[C@H](C(=O)O)C(C)C` [Compound 75], the CP50 was 7.36 ± 0.31 µM.
